± gives the uncertainty stated by the source.
Experiment: xn = mol fraction of the nth substance listed

CC[C@H](C)[C@H](N)C(=O)O + CC[n+]1ccn(C)c1.O=S(=O)([O-])O + O
viscosity [mPa·s], 100 kPa
Conditions | x1 = 0.0003801, x2 = 0 | x1 = 0.0007797, x2 = 0 | x1 = 0.00113, x2 = 0 | x1 = 0.001526, x2 = 0 | x1 = 0.001761, x2 = 0 | x1 = 0.002228, x2 = 0 | x1 = 0.002748, x2 = 0
293.15 K | 1.024 ± 0.033 | 1.046 ± 0.033 | 1.066 ± 0.033 | 1.088 ± 0.033 | 1.101 ± 0.033 | 1.127 ± 0.033 | 1.156 ± 0.046
298.15 K | 0.902 ± 0.032 | 0.913 ± 0.032 | 0.923 ± 0.032 | 0.934 ± 0.032 | 0.94 ± 0.031 | 0.953 ± 0.032 | 0.968 ± 0.041
303.15 K | 0.807 ± 0.031 | 0.817 ± 0.031 | 0.826 ± 0.031 | 0.836 ± 0.031 | 0.843 ± 0.031 | 0.855 ± 0.031 | 0.868 ± 0.032
308.15 K | 0.729 ± 0.031 | 0.739 ± 0.031 | 0.748 ± 0.031 | 0.757 ± 0.031 | 0.763 ± 0.031 | 0.775 ± 0.031 | 0.787 ± 0.031
313.15 K | 0.661 ± 0.031 | 0.671 ± 0.031 | 0.679 ± 0.031 | 0.688 ± 0.031 | 0.693 ± 0.031 | 0.704 ± 0.031 | 0.716 ± 0.031

CCn1cc[n+](C)c1.[Cl][Al-]([Cl])([Cl])[Cl+][Al-]([Cl])([Cl])[Cl] + CC[n+]1ccn(C)c1.[Cl][Al-]([Cl])([Cl])[Cl]
100 kPa, x1 = 1
Conditions | viscosity [mPa·s]
313.15 K | 9.79 ± 0.088
323.15 K | 7.943 ± 0.072
343.15 K | 5.526 ± 0.05
353.15 K | 4.721 ± 0.043

COC(=O)OC + CC[n+]1ccn(C)c1C.O=S(=O)([N-]S(=O)(=O)C(F)(F)F)C(F)(F)F
101.3 kPa, x2 = 0
Conditions | viscosity [mPa·s]
288.15 K | 0.668 ± 0.015
293.15 K | 0.628 ± 0.014
298.15 K | 0.588 ± 0.013
303.15 K | 0.553 ± 0.012
308.15 K | 0.524 ± 0.011
313.15 K | 0.498 ± 0.011

CC[n+]1ccn(C)c1.[Cl][Al-]([Cl])([Cl])[Cl] + CCn1cc[n+](C)c1.[Cl][Al-]([Cl])([Cl])[Cl+][Al-]([Cl])([Cl])[Cl]
100 kPa
Conditions | viscosity [mPa·s]
293.15 K, x2 = 0.2046 | 19.38 ± 0.18
303.15 K, x2 = 0 | 15.69 ± 0.14
303.15 K, x2 = 0.3035 | 14.44 ± 0.13
303.15 K, x2 = 0.5041 | 13.77 ± 0.12
303.15 K, x2 = 0.6955 | 13.21 ± 0.12
323.15 K, x2 = 0.4003 | 9.033 ± 0.082
323.15 K, x2 = 0.5962 | 8.65 ± 0.078
323.15 K, x2 = 0.6955 | 8.468 ± 0.076
323.15 K, x2 = 0.7963 | 8.286 ± 0.075
333.15 K, x2 = 0.1016 | 8.016 ± 0.072
333.15 K, x2 = 0.2046 | 7.821 ± 0.071
333.15 K, x2 = 0.8901 | 6.726 ± 0.061
343.15 K, x2 = 0.5962 | 6.037 ± 0.055
343.15 K, x2 = 0.6955 | 5.906 ± 0.053
353.15 K, x2 = 0.1016 | 5.806 ± 0.052

CCCCCCCCn1cc[n+](C)c1.N#C[S-] + CN1CCCC1=O
viscosity [mPa·s], 101 kPa
Conditions | x1 = 0.0008419 | x1 = 0.001327 | x1 = 0.002048 | x1 = 0.002709 | x1 = 0.003576 | x1 = 0.004058 | x1 = 0.004657 | x1 = 0.005393
288.15 K | 2.152 ± 0.023 | 2.16 ± 0.023 | 2.177 ± 0.023 | 2.191 ± 0.024 | 2.199 ± 0.024 | 2.204 ± 0.024 | 2.213 ± 0.024 | 2.229 ± 0.024
298.15 K | 1.809 ± 0.02 | 1.817 ± 0.02 | 1.827 ± 0.02 | 1.834 ± 0.021 | 1.846 ± 0.021 | 1.857 ± 0.021 | 1.865 ± 0.021 | 1.872 ± 0.021
308.15 K | 1.572 ± 0.018 | 1.58 ± 0.018 | 1.591 ± 0.018 | 1.599 ± 0.018 | 1.61 ± 0.018 | 1.621 ± 0.018 | 1.631 ± 0.018 | 1.641 ± 0.018
318.15 K | 1.354 ± 0.017 | 1.37 ± 0.017 | 1.393 ± 0.016 | 1.407 ± 0.016 | 1.417 ± 0.016 | 1.434 ± 0.017 | 1.447 ± 0.017 | 1.458 ± 0.017

CCCCCCCCn1cc[n+](C)c1.[Cl-] + CN1CCCC1=O
100 kPa
Conditions | viscosity [mPa·s]
293.15 K, x2 = 0.3221 | 787 ± 74
298.15 K, x2 = 0.3221 | 541 ± 46
308.15 K, x2 = 0.7195 | 14.86 ± 0.63
308.15 K, x2 = 0.9085 | 3.35 ± 0.14
318.15 K, x2 = 0.21 | 324 ± 23
318.15 K, x2 = 0.5321 | 43.3 ± 1.8
318.15 K, x2 = 0.8143 | 5.54 ± 0.23
323.15 K, x2 = 0.21 | 244 ± 16
323.15 K, x2 = 0.8143 | 4.96 ± 0.21
328.15 K, x2 = 0.21 | 185 ± 11

CCCCCC[n+]1ccn(C)c1.N#C[S-] + CN1CCCC1=O
viscosity [mPa·s], 101 kPa
Conditions | x1 = 0.001079 | x1 = 0.001613 | x1 = 0.002068 | x1 = 0.00265 | x1 = 0.003379 | x1 = 0.004077 | x1 = 0.004588 | x1 = 0.005383
288.15 K | 2.143 ± 0.023 | 2.148 ± 0.023 | 2.155 ± 0.023 | 2.162 ± 0.023 | 2.168 ± 0.023 | 2.173 ± 0.023 | 2.182 ± 0.023 | 2.186 ± 0.023
298.15 K | 1.805 ± 0.02 | 1.809 ± 0.02 | 1.82 ± 0.02 | 1.826 ± 0.02 | 1.833 ± 0.02 | 1.841 ± 0.02 | 1.847 ± 0.02 | 1.854 ± 0.02
308.15 K | 1.567 ± 0.018 | 1.576 ± 0.018 | 1.585 ± 0.018 | 1.593 ± 0.018 | 1.6 ± 0.018 | 1.613 ± 0.018 | 1.619 ± 0.018 | 1.624 ± 0.018
318.15 K | 1.337 ± 0.017 | 1.35 ± 0.017 | 1.357 ± 0.017 | 1.37 ± 0.017 | 1.38 ± 0.017 | 1.389 ± 0.017 | 1.397 ± 0.017 | 1.402 ± 0.017

CCCCCCCCn1cc[n+](C)c1.N#C[S-] + CN(C)C=O
viscosity [mPa·s], 101 kPa
Conditions | 293.15 K | 303.15 K | 313.15 K | 323.15 K | 333.15 K | 343.15 K | 353.15 K | 363.15 K
x1 = 0.004576 | 0.987 ± 0.025 | 0.872 ± 0.022 | 0.784 ± 0.022 | 0.707 ± 0.02 | 0.65 ± 0.018 | 0.595 ± 0.013 | 0.544 ± 0.015 | 0.504 ± 0.013
x1 = 0.007767 | 1.007 ± 0.023 | 0.891 ± 0.02 | 0.799 ± 0.019 | 0.722 ± 0.017 | 0.658 ± 0.015 | 0.604 ± 0.014 | 0.558 ± 0.013 | 0.515 ± 0.012
x1 = 0.01461 | 1.065 ± 0.024 | 0.948 ± 0.021 | 0.868 ± 0.02 | 0.779 ± 0.018 | 0.705 ± 0.016 | 0.642 ± 0.015 | 0.591 ± 0.014 | 0.543 ± 0.013
x1 = 0.02142 | 1.136 ± 0.026 | 0.994 ± 0.022 | 0.912 ± 0.02 | 0.814 ± 0.018 | 0.728 ± 0.016 | 0.673 ± 0.015 | 0.617 ± 0.014 | 0.563 ± 0.013
x1 = 0.02908 | 1.219 ± 0.027 | 1.057 ± 0.024 | 0.956 ± 0.021 | 0.848 ± 0.019 | 0.764 ± 0.017 | 0.713 ± 0.016 | 0.648 ± 0.015 | 0.598 ± 0.014
x1 = 0.03577 | 1.297 ± 0.029 | 1.134 ± 0.026 | 1.013 ± 0.023 | 0.897 ± 0.021 | 0.808 ± 0.019 | 0.738 ± 0.017 | 0.672 ± 0.015 | 0.618 ± 0.014

Source: the CheMixHub ionic liquid set
